Marks after values point to notes of the source that are not given here.
Assays:
PC-3 cell xenografts = experiment: Tumor growth inhibition in PC-3 cell xenograft model; format: in vivo, nude mice; settings: for Tumor growth inhibitory rate, estimated by the means of tumor weight / Tumor weight at the end of the experiment: 10 mg/kg daily oral, nude mice; for Tumor weight at the end of the experiment: day 24, control 2.47 ± 0.43 g; for Effect on tumor volume: 10 mg/kg daily, PC-3 cell xenografts in nude mice
Description: Male nu/nu mice were obtained from BioLasco Taiwan (Taipei, Taiwan) and maintained on a standard laboratory chow (Purina rodent chow 5001, Purina, St. Louis, MO, USA). At 5 weeks of age, nude mice were used for the xenograft experiment. For the oral bioavailability study, 5-week-old male […] mice were purchased from the National Laboratory Animal Center (Taipei, Taiwan), and the experiment was started after 1 week of acclimation. All mice were housed in an air-conditioned room (temperature: 22 ± 2 °C; humidity: 50–60%) under standard conditions (12 h light/12 h dark cycle). All animal studies were approved by the National Pingtung University of Science and Technology, Institutional Animal Care and Use Committee with protocol numbers NPUST-102-015 and NPUST-105-045.
The 5-week-old nude mice were divided into three groups (n = 6) and administered with the vehicle, 5-DTAN (10 mg/kg), and 5-ATAN (10 mg/kg), respectively. Tumors were established by subcutaneous injections of PC-3 cells (1 × 10^6 cells) into the right flank side of nude mice. The tumor size was measured twice a week with digital calipers, and the tumor volume (V) was calculated by the following formula: V = length × width^2 × 0.5. On day 24, the mice were sacrificed by CO2, and the tumors were harvested and weighed.

CL1-5 cell xenograft = test system: CL1-5 cell xenograft; set-up: method as in PMID 26569090; settings: 20 mg/kg i.p., CL1-5 cell xenograft mice; cited from earlier work
PC-3 cells [1] = experiment: Cell cycle distribution / sub-G1 apoptotic ratio by PI flow cytometry; format: cell-based, human; settings: 48 h
Procedure: (§1) PC-3 cells were seeded in 96-well plates at a density of 2.5 × 10^3 cells/well and allowed to attach for 24 h. The medium was changed to serum-free RPMI supplemented with 0–20 μM TAN, 5-DTAN, or 5-ATAN, and then incubated for an additional 48 h. The cell viability was determined by the MTT assay and represented as a percentage of the growth of the DMSO-treated cells. FACScan flow cytometer (Becton Dickinson, San Jose, CA, USA) was used to analyze the cell cycle distribution as previously mentioned. Briefly, PC-3 cells treated with various concentrations of 5-DTAN or 5-ATAN for 48 h were trypsinized and gently fixed in 70% ice-cold ethanol and stored at −20 °C for at least 24 h. Then, the cells were washed with cold phosphate-buffered saline (PBS), followed by incubation with 40 μg/mL PI, 0.1 mg/mL RNase A, and 0.1% TritonX-100 in the dark for 30 min at room temperature. Subsequently, the cell cycle distribution of the PI-stained cells was analyzed by a FACScan flow cytometer, and the results were analyzed and calculated using ModFit LT Ver. 3.0 software. The proportion of the sub-G1 phase was quantitated and represented as the apoptotic ratio. Furthermore, a QIAamp DNA mini kit was used to extract DNA from the PC-3 cells treated with 5-DTAN or 5-ATAN for 48 h. Then, the extracted DNA was loaded on a 2% agarose gel containing HealthView^TM Nucleic Acid Stain (Genomics, New Taipei, Taiwan) for electrophoresis at 50 V. The gel was visualized under UV light, and the DNA fragmentation pattern was photographed.

Bax = experiment: Western blot protein expression, Bax; format: cell-based, human; settings: PC-3 cells, 10 µM
Procedure: (§2) Western blot was performed to analyze the protein expression in the PC-3 Cells. The cells were exposed to indicated concentrations of 5-ATAN for various time periods at 37 °C. Then, they were washed with cold PBS and harvested, and a Western blot was conducted as previously described.

PC-3 cells [2] = experiment: Colony formation assay; format: cell-based, human; settings: PC-3 cells, 1.25, 2.5 and 5 µM, 14 days
Procedure: (§3) The colony formation assay was conducted using a procedure modified from the previous report. PC-3 cells were seeded in 6-well plates at a density of 500 cells/well and allowed to attach for 24 h. Subsequently, the cells were treated with various concentrations of 5-ATAN. After 14 days of incubation, the colonies formed were observed by crystal violet staining and photographed. The wound healing assay was performed to assess the effect of 5-ATAN on the migration ability of PC-3 cells. Cells were seeded into a 6 cm dish at a cell density of 1 × 10^6 cells/well. After being cultured at 37 °C for 24 h, a 200 µL yellow pipette tip was used to scrape a gap in the middle of the dish. After washing twice with 1X PBS solution, the medium was replaced with fresh, serum-free medium containing different concentrations of 5-ATAN and incubated for 24 h. Then, the images were taken with an inverted phase contrast microscope at a magnification of 100×, and the Image J software was used for the measurement of the wound width. The percentage of cell migration (% of control) was calculated by measuring the movement of the cells into the scratch area after 24 h of treatment with DMSO or 5-ATAN.

Cdc2 = experiment: Western blot protein expression, Cdc2; format: cell-based, human; settings: PC-3 cells, 10 µM, only after 48 h
Procedure: as §2

MMP-2 = experiment: Western blot protein expression, MMP-2; format: cell-based, human; settings: PC-3 cells, 5 µM, only at 48 h
Procedure: as §2

PC-3 cells [3] = experiment: Mitochondrial membrane potential (DiOC6, flow cytometry); format: cell-based, human; settings: 2.5-10 µM, 48 h
Procedure: (§4) The PC-3 cells were treated with the indicated concentration of 5-DTAN or 5-ATAN for 48 h, and then cells were collected and stained by a CaspGLOW^TM Fluorescein Active Caspase-3 Staining Kit (Thermo Fisher Scientific, MA, USA) or 3,3′-dihexyloxacarbocyanine iodide (DiOC6, Merck Millipore, Burlington, MA, USA) for caspase-3 activity and mitochondria membrane potential analysis, respectively. The percentages of caspase-3-activated or DiOC6-positive cells were measured using a flow cytometer and calculated by the CellQuest Pro software.

PC-3 cells [4] = experiment: DNA fragmentation (agarose gel electrophoresis); format: cell-based, human; settings: 48 h
Procedure: as §1, with “Then, the extracted DNA was loaded on a 2% agarose gel containing HealthView^TM Nucleic Acid Stain (Genomics, New Taipei, Taiwan) for electrophoresis at 50 V. The gel was visualized under UV light, and the DNA fragmentation pattern was photographed.” left out

[5] = Tissue distribution of 5-DTAN after 7 days oral dosing; format: in vivo; settings: 50 mg/kg i.g., 7 consecutive days, C57BL/6J mice; except kidney and lung
Procedure: Basically, esterase in the cytosol and plasma rapidly converts 5-ATAN absorbed into cells or into the blood circulation to 5-DTAN by deacetylation. The 5-DTAN in 5-DTAN-treated and 5-ATAN-treated samples can be determined by the HPLC-electrochemical detection (ECD) method. PC-3 cells were seeded in 10 cm dishes (1 × 10^6 cells) and allowed to attach for 24 h. Subsequently, cells were treated with various concentrations of 5-DTAN or 5-ATAN for 12 h, or with 15 µM of 5-DTAN or 5-ATAN for different time periods. Then, the cells were washed with cold PBS, collected, and centrifuged at 300× g for 5 min to remove the supernatant. […] The cytosolic levels of 5-DTAN in the resulting supernatant were analyzed by HPLC with an Ascentis RP-Amide column (L × I.D. 15 cm × 4.6 mm, 3 μm) (Merck KGaA, Darmstadt, Germany) as previously described. […] The samples were reconstituted in methanol and the levels of 5-DTAN were analyzed by HPLC-ECD. Pharmacokinetic parameters, including maximum concentration (Cmax), maximum time (Tmax), half-life (T1/2), and area under the curve (AUC), were calculated and obtained by the Thermo kinetica 5.0 software (Thermo Fisher Scientific, Waltham, MA, USA). […] The supernatant was obtained by centrifuging at 15,130× g for 15 min at 4 °C and then extracted with an equal volume of ethyl acetate and analyzed using the methods described above.

Bcl-xL = experiment: Western blot protein expression, Bcl-xL; format: cell-based, human; settings: PC-3 cells, 10 µM
Procedure: as §2

caspase-3 = experiment: Caspase-3 activity by flow cytometry (CaspGLOW staining); format: cell-based, human; settings: PC-3 cells, 48 h
Procedure: as §4

[6] = test system: PC-3 human prostate cancer cells; experiment: MTT cell viability assay; format: cell-based; settings: PC-3 cells, 48 h; for IC50: Homo sapiens, MTT
Procedure: PC-3 human prostate cancer cell line was obtained from the Bioresource Collection and Research Center (Hsinchu, Taiwan) and maintained in RPMI medium with 10% FBS and 1% penicillin-streptomycin (PS). The cells were incubated in a 5% CO2 humidified atmosphere at 37 °C. TAN, 5-DTAN, and 5-ATAN were dissolved in DMSO to prepare a 20 mM sample stock, and the final ratio of the DMSO in the treatment medium was 0.1%.
as §1

PC-3 cells [7] = experiment: Wound healing cell migration assay; format: cell-based, human; settings: 24 h
Procedure: as §3

Cdc25c = experiment: Western blot protein expression, Cdc25c; format: cell-based, human; settings: PC-3 cells, 10 µM, time-dependent
Procedure: as §2

Cyclin B1 = experiment: Western blot protein expression, Cyclin B1; format: cell-based, human; settings: PC-3 cells, 10 µM, time-dependent
Procedure: as §2

MMP-9 = experiment: Western blot protein expression, MMP-9; format: cell-based, human; settings: PC-3 cells, 5 µM, effect enhanced with treatment time
Procedure: as §2

[8] = set-up: method as in doi:10.1016/j.jff.2008.09.003; settings: cited from earlier work

| Structure (SMILES) | Tumor growth inhibitory rate, estimated by the means of tumor weight (PC-3 cell xenografts) [%] | Tumor weight at the end of the experiment (PC-3 cell xenografts) [g] | Effect on tumor volume (PC-3 cell xenografts) | Cell Cycle Distribution (%) G0/G1 (PC-3 cells [1]; 2.5 μM) | Cell Cycle Distribution (%) G2/M (PC-3 cells [1]; 2.5 μM) | Cell Cycle Distribution (%) S (PC-3 cells [1]; 2.5 μM) | Cell Cycle Distribution (%) G0/G1 (PC-3 cells [1]; 5 μM) | Cell Cycle Distribution (%) G2/M (PC-3 cells [1]; 5 μM) | Cell Cycle Distribution (%) S (PC-3 cells [1]; 5 μM) | Cell Cycle Distribution (%) G0/G1 (PC-3 cells [1]; 10 μM) | Cell Cycle Distribution (%) G2/M (PC-3 cells [1]; 10 μM) | Cell Cycle Distribution (%) S (PC-3 cells [1]; 10 μM) | Concentration at which DNA ladders were observed (PC-3 cells [4]) | IC50 [6] [µM] | further results |
| --- | --- | --- | --- | --- | --- | --- | --- | --- | --- | --- | --- | --- | --- | --- | --- |
| COc1ccc(-c2cc(=O)c3c(OC(C)=O)c(OC)c(OC)c(OC)c3o2)cc1 [5-ATAN, 5-acetyloxy-6,7,8,4′-tetramethoxyflavone] | 61.9 | 0.94 ± 0.18 | significantly suppressed | 58.5 ± 1.1 ^A % | 34.7 ± 0.8 ^C % | 6.8 ± 0.3 ^B % | 49.1 ± 0.3 ^B % | 45.7 ± 0.5 ^B % | 5.2 ± 0.3 ^C % | 44.7 ± 0.3 ^C % | 50.3 ± 1.3 ^A % | 4.6 ± 0.5 ^D % | higher than 5 μM | 5.1 | Tumor growth inhibitory rate (CL1-5 cell xenograft): 43%; Apoptotic cells (sub-G1) (PC-3 cells [1]; 10 μM): 22.2%; Expression of Bax (Bax): slight increase; Number of colonies (PC-3 cells [2]): dose-dependently decreased; Expression of Cdc-2 (Cdc2): reduced; Expression of MMP-2 (MMP-2): obviously inhibited; Effect on mitochondrial membrane potential (PC-3 cells [3]): dose-dependent decline; Levels of 5-DTAN in most tissues vs 5-DTAN-treated mice [5]: significantly higher; Expression of Bcl-xL (Bcl-xL): marked decrease; Percentage of caspase-3 activity (caspase-3; 2.5 μM): 7.2 ± 0.6%; Percentage of caspase-3 activity (caspase-3; 5 μM): 9.1 ± 1.7%; Percentage of caspase-3 activity (caspase-3; 10 μM): 18.8 ± 02.4%; IC50 fold lower than that of 5-DTAN [6]: 2.3 fold; IC50 fold lower than that of TAN [6]: 3.4 fold; Suppression of migration compared to the control (PC-3 cells [7]; 1.25 µM): 35.5%; Suppression of migration compared to the control (PC-3 cells [7]; 2.5 µM): 48.5%; Suppression of migration compared to the control (PC-3 cells [7]; 5 µM): 73.6%; Expression of Cdc25c (Cdc25c): dramatically down-regulated; Expression of Cyclin B1 (Cyclin B1): dramatically down-regulated; Expression of MMP-9 (MMP-9): significantly inhibited |
| COc1ccc(-c2cc(=O)c3c(O)c(OC)c(OC)c(OC)c3o2)cc1 [5-DTAN, 5-hydroxy-6,7,8,4′-tetramethoxyflavone, reference compound] | 43.7 | 1.39 ± 0.36 | significantly suppressed | 60.2 ± 2.8 ^b % | 31.6 ± 2.7 ^a % | 8.2 ± 0.1% | 59.9 ± 0.4 ^b % | 31.4 ± 0.5 ^a % | 8.7 ± 0.3% | 58.2 ± 2.4 ^b % | 32.6 ± 1.1 ^a % | 8.5 ± 0.9% | 20 µM | 11.8 | Solubility in biological systems [8]: extremely poor solubility |
| COc1ccc(-c2cc(=O)c3c(OC)c(OC)c(OC)c(OC)c3o2)cc1 [TAN, 5,6,7,8,4′-pentamethoxyflavone, reference compound] | – | – | – | – | – | – | – | – | – | – | – | – | – | 17.2 | – |
